Measured values from ChEMBL document CHEMBL1201862, “PubChem BioAssay data set” (2004).
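Growth conditions: 96-well plates. Treatment: test compound, 48 hours, 5 concentrations. Analysis: linear interpolation between bracketing concentrations; unreached endpoints set to highest concentration. Here, GI50 denotes the concentration required for 50% inhibition of growth.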 The source made the active and inactive calls. Rule as the data show it: active = GI50 up to about 1.1 µM and inactive = higher.

Experiments:
Experiment in all cases: NCI-60 cell line screen, 48 h
U-251 = tested on: U-251
SK-MEL-5 = tested on: SK-MEL-5
IGROV-1 = tested on: IGROV-1
MOLT-4 = tested on: MOLT-4
ACHN = tested on: ACHN
SK-MEL-2 = tested on: SK-MEL-2
SR = tested on: SR
EKVX = tested on: EKVX
CAKI-1 = tested on: CAKI-1
OVCAR-8 = tested on: OVCAR-8
A498 = tested on: A498
UACC-257 = tested on: UACC-257
COLO 205 = tested on: COLO 205
NCI-H23 = tested on: NCI-H23
OVCAR-4 = tested on: OVCAR-4
HOP-62 = tested on: HOP-62
HOP-92 = tested on: HOP-92
M14 = tested on: M14
SK-MEL-28 = tested on: SK-MEL-28
HL-60 = tested on: HL-60

Measured: GI50

CC1(C)CCC(C)(C)c2c1ccc(O)c2Cc1c(O)ccc2c1C(C)(C)CCC2(C)C
inactive: U-251 1.78 µM | SK-MEL-5 1.87 µM | IGROV-1 1.97 µM | MOLT-4 2.11 µM | ACHN 1.74 µM | SK-MEL-2 1.65 µM | SR 2.7 µM | EKVX 2.93 µM | CAKI-1 2.15 µM | OVCAR-8 2.13 µM | A498 1.79 µM | UACC-257 1.85 µM | COLO 205 2.13 µM | NCI-H23 2.04 µM | OVCAR-4 1.81 µM | HOP-62 2.19 µM | HOP-92 1.95 µM | M14 1.88 µM | SK-MEL-28 2.12 µM | HL-60 2.76 µM

CC(=O)NNc1nc(C)c(C(=O)NNC(=O)C(=O)Nc2cccc(C(C)=O)c2)s1
inactive: U-251 26.6 µM | SK-MEL-5 95.3 µM | IGROV-1 26.5 µM | MOLT-4 45.3 µM | ACHN 16.9 µM | SK-MEL-2 36.1 µM | SR 18 µM | EKVX 42.7 µM | CAKI-1 16.4 µM | OVCAR-8 20 µM | A498 20.7 µM | UACC-257 23.1 µM | COLO 205 53.6 µM | NCI-H23 17.5 µM | OVCAR-4 25.2 µM | HOP-62 25.3 µM | HOP-92 13.4 µM | SK-MEL-28 19.7 µM | HL-60 25.5 µM

O=C1NCN(c2ccccc2)C12CCN(CCCN1CCN(CCOC(c3ccc(F)cc3)c3ccc(F)cc3)CC1)CC2
inactive: U-251 1.92 µM | SK-MEL-5 1.69 µM | IGROV-1 1.98 µM | MOLT-4 3.15 µM | ACHN 1.99 µM | SK-MEL-2 1.96 µM | SR 2.36 µM | EKVX 2.88 µM | CAKI-1 2.12 µM | OVCAR-8 2.15 µM | A498 1.84 µM | UACC-257 1.85 µM | COLO 205 1.52 µM | NCI-H23 3.51 µM | OVCAR-4 2.92 µM | HOP-62 1.95 µM | HOP-92 1.64 µM | M14 1.88 µM | SK-MEL-28 2.47 µM | HL-60 1.48 µM

Clc1nc(Cl)nc(Nc2cccc3ccccc23)n1
inactive: U-251 > 10 µM | SK-MEL-5 > 10 µM | IGROV-1 > 10 µM | MOLT-4 > 10 µM | ACHN > 10 µM | SK-MEL-2 > 10 µM | SR > 10 µM | EKVX > 10 µM | CAKI-1 > 10 µM | OVCAR-8 > 10 µM | A498 > 10 µM | COLO 205 > 10 µM | NCI-H23 > 10 µM | OVCAR-4 > 10 µM | HOP-62 > 10 µM | M14 > 10 µM | SK-MEL-28 > 10 µM | HL-60 7.98 µM

Cc1cc(S(=O)(=O)NC2=NCCCN2)c(S)cc1Cl
inactive: U-251 34.4 µM | SK-MEL-5 17.9 µM | IGROV-1 27.5 µM | ACHN 33.8 µM | SK-MEL-2 12.4 µM | SR 21.2 µM | EKVX 38.9 µM | CAKI-1 16.8 µM | OVCAR-8 24.3 µM | A498 > 100 µM | UACC-257 37.5 µM | COLO 205 40.4 µM | OVCAR-4 16.8 µM | HOP-62 54.3 µM | M14 29.6 µM | SK-MEL-28 56.4 µM | HL-60 22.1 µM

COc1cc(C2c3cc4c(cc3OC3(O)COC(=O)C23)OCO4)cc(OC)c1OC (stereo not given)
inactive: U-251 38.4 µM | SK-MEL-5 > 10 µM | IGROV-1 48.9 µM | MOLT-4 42.6 µM | ACHN 53 µM | SK-MEL-2 > 100 µM | SR 16.7 µM | EKVX 78.3 µM | CAKI-1 51.3 µM | OVCAR-8 54 µM | A498 46.7 µM | UACC-257 55 µM | NCI-H23 34.8 µM | OVCAR-4 > 100 µM | HOP-62 62.7 µM | M14 34.7 µM | HL-60 30.3 µM

O=C1CCCCC[C@]12SC[C@H]1CON=C12
inactive: U-251 12.3 µM | SK-MEL-5 > 100 µM | IGROV-1 47.5 µM | MOLT-4 36.3 µM | ACHN 27.8 µM | SR 9.42 µM | EKVX 31 µM | CAKI-1 22.2 µM | OVCAR-8 65.8 µM | A498 7.16 µM | UACC-257 78.2 µM | COLO 205 29.2 µM | NCI-H23 94.8 µM | OVCAR-4 73.8 µM | HOP-92 12.9 µM | M14 22.3 µM | SK-MEL-28 27.8 µM | HL-60 25.9 µM

COc1ccc(C(=O)Cc2ccc(Cl)cc2)cc1OC
inactive: U-251 > 100 µM | SK-MEL-5 > 100 µM | IGROV-1 > 100 µM | MOLT-4 > 100 µM | ACHN > 100 µM | SK-MEL-2 > 100 µM | SR > 100 µM | EKVX > 100 µM | CAKI-1 > 100 µM | OVCAR-8 > 100 µM | A498 > 100 µM | UACC-257 > 100 µM | NCI-H23 > 100 µM | OVCAR-4 > 100 µM | HOP-62 > 100 µM | M14 > 100 µM | HL-60 > 100 µM

CC(=O)Nc1ccccc1-c1cnc2ccccc2n1
inactive: U-251 > 100 µM | SK-MEL-5 > 100 µM | IGROV-1 > 100 µM | MOLT-4 > 100 µM | ACHN > 100 µM | SR > 100 µM | EKVX > 100 µM | CAKI-1 > 100 µM | OVCAR-8 > 100 µM | A498 > 100 µM | UACC-257 > 100 µM | COLO 205 > 100 µM | NCI-H23 > 100 µM | OVCAR-4 > 100 µM | HOP-62 > 100 µM | HOP-92 > 100 µM | M14 > 100 µM | SK-MEL-28 > 100 µM | HL-60 > 100 µM

Cc1nc(-c2cccnc2)sc1C(=O)CC(=O)C(=O)Nc1cccc(NC(=O)C(=O)CC(=O)c2sc(-c3cccnc3)nc2C)n1
inactive: U-251 > 100 µM | SK-MEL-5 > 100 µM | IGROV-1 > 100 µM | MOLT-4 > 100 µM | ACHN > 100 µM | SK-MEL-2 > 100 µM | SR > 100 µM | EKVX > 100 µM | CAKI-1 > 100 µM | OVCAR-8 > 100 µM | A498 > 100 µM | UACC-257 > 100 µM | COLO 205 > 100 µM | NCI-H23 > 100 µM | OVCAR-4 > 100 µM | HOP-92 > 100 µM | M14 > 100 µM | SK-MEL-28 > 100 µM | HL-60 > 100 µM

Cc1ccc(NC(=O)CC(=O)N2N=C(c3ccccc3)C(/N=N/c3ccc(S(=O)(=O)CCOS(=O)(=O)O)cc3)C2=O)cc1 (stereo not given)
inactive: U-251 41.8 µM | SK-MEL-5 > 100 µM | IGROV-1 41.6 µM | MOLT-4 > 100 µM | ACHN > 100 µM | SK-MEL-2 57.1 µM | SR > 100 µM | EKVX > 100 µM | CAKI-1 > 100 µM | OVCAR-8 64.3 µM | A498 > 100 µM | UACC-257 > 100 µM | COLO 205 > 100 µM | NCI-H23 23.6 µM | HOP-62 77.6 µM | HOP-92 > 100 µM | M14 > 100 µM | SK-MEL-28 > 100 µM | HL-60 > 100 µM

CCCn1cc2c(O)nc(SC)nc2n1
inactive: U-251 > 100 µM | SK-MEL-5 > 100 µM | IGROV-1 > 100 µM | MOLT-4 > 100 µM | ACHN > 100 µM | SK-MEL-2 > 100 µM | SR 57.3 µM | EKVX > 100 µM | CAKI-1 > 100 µM | OVCAR-8 > 100 µM | A498 59.6 µM | UACC-257 > 100 µM | COLO 205 > 100 µM | NCI-H23 > 100 µM | OVCAR-4 91.4 µM | HOP-92 > 100 µM | M14 > 100 µM | SK-MEL-28 > 100 µM | HL-60 > 100 µM

CC1(C)C(=O)c2ccccc2OC1N1CCN(C2Oc3ccccc3C(=O)C2(C)C)CC1 (stereo not given)
inactive: U-251 > 100 µM | SK-MEL-5 > 100 µM | IGROV-1 > 100 µM | MOLT-4 > 100 µM | ACHN > 100 µM | SR > 100 µM | EKVX > 100 µM | CAKI-1 > 100 µM | A498 24.5 µM | COLO 205 > 100 µM | NCI-H23 > 100 µM | OVCAR-4 > 100 µM | HOP-62 > 100 µM | HOP-92 > 100 µM | M14 > 100 µM | SK-MEL-28 > 100 µM | HL-60 > 100 µM

CC1OC2=N[C@@H]1C(=O)N[C@@H](Cc1ccccc1)C1=N[C@H](C(=O)N[C@@H](Cc3ccccc3)C3=N[C@H](C(=O)N[C@H]2Cc2ccccc2)C(C)O3)C(C)O1 (stereo not given in full)
inactive: SK-MEL-5 24.3 µM | IGROV-1 29.4 µM | ACHN 31.3 µM | SK-MEL-2 25.1 µM | SR 27.9 µM | EKVX 49.5 µM | CAKI-1 40.4 µM | OVCAR-8 26.4 µM | A498 29.9 µM | UACC-257 30.4 µM | COLO 205 18.6 µM | NCI-H23 37.2 µM | OVCAR-4 46.2 µM | HOP-62 48.3 µM | HOP-92 18.9 µM | M14 22.6 µM | SK-MEL-28 26.5 µM

Nc1nc(N)c2c(n1)NC(=O)c1c(c3ccccc3n1Cc1ccc(Cl)cc1)C2
inactive: U-251 25.8 µM | SK-MEL-5 15.3 µM | IGROV-1 29.6 µM | MOLT-4 6.56 µM | SK-MEL-2 32.4 µM | SR > 10 µM | EKVX 33.2 µM | CAKI-1 19.7 µM | OVCAR-8 26.4 µM | A498 16 µM | UACC-257 64.1 µM | COLO 205 16 µM | NCI-H23 > 100 µM | OVCAR-4 18.5 µM | HOP-62 25.5 µM | HOP-92 1.5 µM | M14 37.8 µM | SK-MEL-28 49 µM | HL-60 18 µM
